Counter-ions that a name gives are not always drawn.
Tests used:
[1] = system: bleomycin-induced pulmonary fibrosis; assay: Idiopathic pulmonary fibrosis (IPF) model; format: in vivo, Sprague Dawley rats; details: Day 29
Protocol: Experimental animals and grouping: 40 adult male Sprague Dawley rats, after 7 days of adaptive feeding, were divided into 4 groups: sham-operation group (Sham), IPF model group (no treatment; Model), test group (Compound B) and positive control group (Positive Control).
The test were administered Compound B, at a dose of 130 μg/rat, which was introduced by aerosolized inhalation. Oral administration of pirfenidone (Etuary®, Beijing Continent Pharmaceutical Co., Ltd., Beijing, China) as a 120 mg/kg single-bolus dose served as the positive control.
A pulmonary fibrosis model was established by intratracheal instillation of bleomycin. The rats were anaesthetised and placed on an operating table in the supine position, to expose the trachea. Bleomycin (5 mg/kg) saline solution was injected into the trachea through the gap between the tracheal cartilage rings. The sham-operation group were given an equal volume of normal saline. Shortly after administration, the rats were lifted vertically and were rotated, in order to evenly disperse the drug. Once the rats had recovered, after approximately 5 days, they were administrated the different drugs according to the plan for 28 days, consecutively.
The exhaust volume of the atomizing device was 0.15 mL per minute. The inhalation time for each rat was 1 minute.
At Day 29 following drug administration, rats were anesthetized by i.p. injection of chloral hydrate. After orbital blood collection, the rats were sacrificed. The thoracic cavity was quickly opened and the lung was collected for further analysis. The lung wet weight was measured, and the lung coefficient was calculated (lung wet weight/rat weight×1000). The tissue was stored in refrigerator at −80° C. for further use.
A piece of lung tissue was accurately weighed, and 9 times the weight of saline was added. Then, the tissue was homogenized and centrifuged for 10 minutes at 3000 rpm. The homogenate was used to detect the expression of the transformation growth factor (TGF-β1), tumor necrosis factor-α (TNF-α) and alpha-smooth muscle actin (α-SMA). Standard ELISA methods were used for the detection. The contents of malonaldehyde (MDA) and the activity of superoxide dismutase (SOD) in lung tissue were also detected.

ammonia induced cough = assay: Antitussive experiment, ammonia induced cough method; format: in vivo, ICR mice
Protocol: 36 ICR mice were randomly divided into 3 groups according to their body weight, labelled a CMC-Na (Negative) control group, a dextromethorphan hydrobromide (Positive) control group and a Compound B (B) group. Each group contained 12 mice, with 6 males and 6 females in each.
Compound B was administered via atomization inhalation using a YLS-8A Multifunctional cough and sputum inducing device (Jinan Yiyan Science and Technology Co., Ltd.) (0.15 ml/min) for 1 minute, once daily for 5 days. And the positive control drug was administered once daily by intragastric administration at 10 mg/kg for 5 days.
The mice were placed in an inverted beaker 1, 2, and 4 hours after the last drug administration. 1 mL of aqueous ammonia (25.0 to 28.0%) was placed on top of a boiling water bath and was evaporated into the beaker.
The time for mice to receive ammonia exposure was determined by a method characterized by analyzing data immediately after one test or a batch of tests. The results of the previous analysis determined how to conduct the next test or batch of tests.
The difference between the logarithmic value of two adjacent time periods was 0.1.
The number of coughs within 1 minute was detected using a stethoscope. If a mouse coughed three or more times over one minute, this was labelled as called ‘cough’, and less than three times in one minute was labelled ‘cough free’.
The EDT50 was defined as the ammonia stimulating time at which half mice developed a “cough”, calculated by the equation: […]
(c equals the sum of r and x, r is the number of animals in each stimulating time group, x is the logarithm of stimulation time and n was the number of animals in each group). lg is a base 10 logarithmic value.
In Table 15, R is the EDT50 in treatment group divided by the EDT50 in the Control group expressed as a percentage.

[2] = lung tissue homogenate, Compound B 130 μg/rat aerosolized inhalation, pirfenidone gavage, 28 days

Structure (SMILES): Cc1ccc(=O)n(-c2ccccc2)c1 [Positive Control, pirfenidone, reference compound]
- TGF-β1 [1, 2]: 0.41 ± 0.03 ng/mg protein
- TNF-α [1, 2]: 208.41 ± 17.73 pg/mg protein
- α-SMA [1, 2]: 10.98 ± 0.93 pg/mg protein
- MDA ([1]; lung tissue): 0.24 ± 0.05 U/mg protein
- SOD ([1]; lung tissue): 48.59 ± 2.36 U/mg protein

Structure (SMILES): COc1ccc2c(c1)[C@]13CCCC[C@@H]1[C@H](C2)N(C)CC3 [Positive, dextromethorphan hydrobromide, reference compound]
- R (ammonia induced cough; 1 hour after admin., EDT50 in treatment group divided by EDT50 in Control group): 241.7%
- EDT50 (ammonia induced cough; 1 hour after last administration, B 195 μg/mouse atomization inhalation, Positive 10 mg/kg intragastric, once daily 5 days): 50.1 s
- R (ammonia induced cough; 2 hours after admin., EDT50 treatment/Control): 207.3%
- EDT50 (ammonia induced cough; 2 hours after last administration): 44.7 s
- R (ammonia induced cough; 4 hours after admin., EDT50 treatment/Control): 184.8%
- EDT50 (ammonia induced cough; 4 hours after last administration): 41.4 s
